Assay results: US12044684B2, “Methods for diagnosing an autistic spectrum disorder” (QATAR UNIVERSITY, priority 2018, dated 2024)

Experiment: Renal clearance (CL) of free adducts and unmodified amino acids deduced from plasma and spot urine
Assay type: in vivo, human
Description: In one embodiment, renal clearance amino acid adducts is deduced from the concentration of an amino acid adduct detected in a plasma and urine sample according to the following equation: CL (μl/mg creatinine or ml/mg creatinine)=[Analyte]Urine (nmol/mg creatinine)/[Analyte]Plasma (pmol/ml or nmol/ml).
Oxidation, nitration and glycation adduct residues are normalised to their amino acid residue precursors and given as mmol/mol amino acid modified; and related free adducts are given in nM. […] Renal clearance (CL) of glycation, oxidation and nitration free adducts and unmodified amino acids was deduced from plasma and spot urine collections: CL (μl/mg creatinine or ml/mg creatinine)=[Analyte]Urine (nmol/mg creatinine)/[Analyte]Plasma (pmol/ml or nmol/ml).

[1] = children with ASD with respect to healthy controls

Structure (SMILES)	renal clearance, change [1]	also measured
N=C(NCCC[C@H](N)C(=O)O)NCC(=O)O [CMA, Nω-carboxymethylarginine]	–	decrease in renal clearance (CL) (in vivo): 50%; renal clearance, change (in vivo): decreased
NC(Cc1ccc(O)c(-c2cc(CC(N)C(=O)O)ccc2O)c1)C(=O)O (stereo not drawn) [DT, dityrosine]	decreased	–
N[C@@H](CCCCN1C[C@@H](O)[C@@H](O)CC2NC(=NCCC[C@H](N)C(=O)O)N=C21)C(=O)O (stereo partly drawn) [GSP, glucosepane]	decreased	–
NC(CC(=O)c1ccccc1NC=O)C(=O)O (stereo not drawn) [NFK, N-formylkynurenine]	increased	–
N=C(N)NCCC[C@H](N)C(=O)O [arg, arginine]	decreased	decrease in renal clearance (CL) (children with ASD compared to healthy control, P<0.001): 32%
N[C@@H](CCC(=O)O)C(=O)O [glu, glutamate]	decreased	–
CC(C)C[C@H](N)C(=O)O [leu, leucine]	decreased	–
N[C@@H](Cc1ccccc1)C(=O)O [phe, phenylalanine]	decreased	–
C[C@@H](O)[C@H](N)C(=O)O [thr, threonine]	decreased	–
N[C@@H](Cc1c[nH]c2ccccc12)C(=O)O [trp, tryptophan]	increased	–
